Laboratory results: ChEMBL document CHEMBL1201862, “PubChem BioAssay data set” (2004)
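Assay format: 96-well plates, 48-hour exposure. GI50 is the concentration that inhibits growth by half.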 The source made the active and inactive calls. No stated cut-off is given here; in the data, active = GI50 up to about 1.1 µM and inactive = higher.

Key:
Test in all cases: DTP human tumour cell line panel, 48 h
HT-29 = system: HT-29
NCI-H226 = system: NCI-H226
OVCAR-8 = system: OVCAR-8
Malme-3M = system: Malme-3M
BT-549 = system: BT-549
M14 = system: M14
A549 = system: A549
NCI-H522 = system: NCI-H522
OVCAR-4 = system: OVCAR-4
SK-OV-3 = system: SK-OV-3
SN12C = system: SN12C
TK-10 = system: TK-10
PC-3 = system: PC-3
MDA-N = system: MDA-N
CAKI-1 = system: CAKI-1
HOP-92 = system: HOP-92
RXF 393 = system: RXF 393
LOX IMVI = system: LOX IMVI

Measured: GI50

CC(C)c1ccc2nc3ccc(C(=O)NCCN(C)C)cn3c(=O)c2c1
inactive: HT-29 7.74 µM | NCI-H226 18 µM | OVCAR-8 18.8 µM | Malme-3M 3.37 µM | BT-549 14.2 µM | M14 14.6 µM | A549 17.4 µM | NCI-H522 15.3 µM | OVCAR-4 24.7 µM | SK-OV-3 17.5 µM | SN12C 14.8 µM | TK-10 17.3 µM | PC-3 13.6 µM | MDA-N 16.4 µM | CAKI-1 23.1 µM

COc1ccccc1NC(=S)N/N=C1\C(=O)Nc2ccccc21
inactive: HT-29 > 100 µM | NCI-H226 > 100 µM | OVCAR-8 > 100 µM | HOP-92 > 100 µM | Malme-3M > 100 µM | RXF 393 > 100 µM | M14 > 100 µM | A549 > 100 µM | NCI-H522 > 100 µM | LOX IMVI > 100 µM | OVCAR-4 > 100 µM | SK-OV-3 > 100 µM | SN12C > 100 µM | TK-10 > 100 µM | PC-3 > 100 µM | MDA-N > 100 µM | CAKI-1 > 100 µM

COc1cccc(N(CN2CC=CC2=O)C(C)=O)c1
inactive: HT-29 > 100 µM | NCI-H226 > 100 µM | OVCAR-8 > 100 µM | HOP-92 > 100 µM | Malme-3M > 100 µM | RXF 393 > 100 µM | M14 > 100 µM | A549 > 100 µM | NCI-H522 > 100 µM | LOX IMVI > 100 µM | OVCAR-4 > 100 µM | SK-OV-3 > 100 µM | SN12C > 100 µM | TK-10 > 100 µM | PC-3 > 100 µM | MDA-N > 100 µM | CAKI-1 > 100 µM

CC1(C)COC(c2cccc(C(=O)c3ccccc3)c2)=N1
inactive: HT-29 33.1 µM | OVCAR-8 48.5 µM | HOP-92 25.9 µM | Malme-3M 46.3 µM | A549 55.2 µM | NCI-H522 16.8 µM | LOX IMVI 38.6 µM | OVCAR-4 31 µM | SK-OV-3 > 100 µM | SN12C 32 µM | TK-10 90.6 µM | PC-3 38.9 µM | MDA-N 41 µM | CAKI-1 46.7 µM

COc1cc(S(=O)(=O)Nc2nc(-c3ccc(N4C(=O)C(CC(=O)O)SC4c4cccs4)cc3)cs2)ccc1Cl (stereo unspecified)
inactive: HT-29 > 100 µM | NCI-H226 > 100 µM | OVCAR-8 39 µM | HOP-92 30.9 µM | Malme-3M 22.6 µM | RXF 393 15.7 µM | M14 > 100 µM | A549 > 100 µM | NCI-H522 17.8 µM | LOX IMVI 20.3 µM | OVCAR-4 26.7 µM | SK-OV-3 > 100 µM | SN12C 30.3 µM | TK-10 79.4 µM | PC-3 49.1 µM | MDA-N 43.3 µM | CAKI-1 55.5 µM

O=c1oc(C(C(F)(F)F)C(F)(F)F)nc2ccccc12
inactive: HT-29 > 100 µM | NCI-H226 > 100 µM | OVCAR-8 > 100 µM | HOP-92 > 100 µM | Malme-3M > 100 µM | RXF 393 > 100 µM | M14 > 100 µM | A549 > 100 µM | NCI-H522 > 100 µM | LOX IMVI > 100 µM | OVCAR-4 > 100 µM | SK-OV-3 > 100 µM | TK-10 > 100 µM | PC-3 > 100 µM | CAKI-1 > 100 µM

COc1cc(/C=C2\N=C(c3ccccc3)N(/N=C/c3cc4cc(C)ccc4nc3Cl)C2=O)ccc1O
inactive: HT-29 33.8 µM | OVCAR-8 49.7 µM | HOP-92 31.6 µM | BT-549 63.8 µM | RXF 393 34 µM | M14 42.1 µM | A549 37.5 µM | LOX IMVI 37 µM | OVCAR-4 43.8 µM | SK-OV-3 88.1 µM | SN12C 30 µM | TK-10 43.2 µM | PC-3 20 µM | MDA-N 15.9 µM | CAKI-1 78 µM

COc1ccccc1N1C(=O)CSC1c1cccc(Oc2ccccc2)c1 (stereo unspecified)
inactive: HT-29 20.1 µM | NCI-H226 20.3 µM | OVCAR-8 17.9 µM | HOP-92 12.7 µM | Malme-3M 16.3 µM | BT-549 17.1 µM | RXF 393 17.8 µM | M14 17.7 µM | A549 21.8 µM | NCI-H522 16.2 µM | LOX IMVI 17.1 µM | OVCAR-4 18.5 µM | SK-OV-3 34.8 µM | SN12C 17.2 µM | TK-10 25.4 µM | PC-3 17.6 µM | CAKI-1 23.8 µM

O=C(O)CCCc1nc2c(n1Cc1ccccc1)C(=O)c1ccccc1C2=O
inactive: OVCAR-8 36.6 µM | HOP-92 48.9 µM | Malme-3M 15.7 µM | M14 3.72 µM | A549 30.8 µM | NCI-H522 29.4 µM | LOX IMVI 40.4 µM | OVCAR-4 20.2 µM | SK-OV-3 > 100 µM | SN12C 36.9 µM | TK-10 > 100 µM | MDA-N 22.5 µM | CAKI-1 > 100 µM

COC1=CC2(CC(OC)=C1OC)OC21COc2ccccc2C1=O (stereo unspecified)
inactive: HT-29 51.4 µM | NCI-H226 62.5 µM | OVCAR-8 > 100 µM | HOP-92 > 100 µM | Malme-3M > 100 µM | BT-549 > 100 µM | RXF 393 46 µM | M14 87.5 µM | A549 56.4 µM | NCI-H522 75 µM | LOX IMVI 50.5 µM | OVCAR-4 84.5 µM | SK-OV-3 > 100 µM | SN12C 47.2 µM | TK-10 > 100 µM | PC-3 84.5 µM | CAKI-1 > 100 µM

CCOC(=O)c1nnc2c(C(=O)OCC)c3ccccc3n2c1N
inactive: HT-29 22.8 µM | OVCAR-8 5.16 µM | Malme-3M 2.1 µM | BT-549 13.7 µM | RXF 393 > 100 µM | M14 5.97 µM | A549 10.5 µM | NCI-H522 6.21 µM | LOX IMVI 5.96 µM | OVCAR-4 5.2 µM | SK-OV-3 6.04 µM | SN12C 6.67 µM | TK-10 7.91 µM | PC-3 5.35 µM | MDA-N 4.36 µM | CAKI-1 7.48 µM

CC(=O)c1c(CO[N+](=O)[O-])[n+]([O-])c2ccccc2[n+]1[O-]
inactive: HT-29 > 100 µM | NCI-H226 34.2 µM | OVCAR-8 > 100 µM | HOP-92 > 100 µM | Malme-3M 53.7 µM | BT-549 > 100 µM | M14 35.1 µM | A549 > 100 µM | NCI-H522 31.8 µM | LOX IMVI 58.5 µM | OVCAR-4 > 100 µM | SK-OV-3 > 100 µM | SN12C 64.1 µM | TK-10 > 100 µM | PC-3 > 100 µM | CAKI-1 > 100 µM

OCCN(CCO)c1ccc2c(c1)Cc1ccccc1-2
inactive: HT-29 18.8 µM | NCI-H226 44.4 µM | OVCAR-8 52.5 µM | HOP-92 21.9 µM | Malme-3M 60.7 µM | M14 32.2 µM | A549 37.8 µM | LOX IMVI 29.9 µM | OVCAR-4 57.1 µM | SK-OV-3 50.6 µM | SN12C 52.1 µM | TK-10 22.1 µM | PC-3 42.6 µM | MDA-N 50.6 µM | CAKI-1 10.3 µM

CC(=NNC(=S)Nc1cccc(C)c1)c1cccc(C(C)=NNC(=S)Nc2cccc(C)c2)n1
inactive: HT-29 26.1 µM | NCI-H226 18.6 µM | OVCAR-8 11 µM | HOP-92 17.1 µM | Malme-3M 14.9 µM | RXF 393 16.2 µM | M14 11.8 µM | A549 18.7 µM | NCI-H522 21.2 µM | LOX IMVI 15.5 µM | OVCAR-4 9.95 µM | SK-OV-3 44.4 µM | SN12C 25.8 µM | TK-10 20.3 µM | PC-3 22.3 µM | MDA-N 42 µM | CAKI-1 11.9 µM

CC(OC(=O)NCn1cc(-c2ccccc2)nn1)c1ccccc1 (stereo unspecified)
inactive: HT-29 25.6 µM | NCI-H226 14.9 µM | OVCAR-8 44.4 µM | HOP-92 56.2 µM | Malme-3M 30.3 µM | BT-549 32.4 µM | M14 17.8 µM | A549 35.7 µM | NCI-H522 27.4 µM | LOX IMVI 75 µM | OVCAR-4 > 10 µM | SN12C 97.1 µM | TK-10 75.2 µM | PC-3 2.39 µM | CAKI-1 > 100 µM

COc1cc2c(c(OC)c1OC)C(=O)[C@@H]1[C@H]2N1C(N)=O
inactive: HT-29 > 100 µM | NCI-H226 > 100 µM | OVCAR-8 > 100 µM | Malme-3M > 100 µM | RXF 393 79.8 µM | M14 > 100 µM | A549 > 100 µM | NCI-H522 > 100 µM | LOX IMVI > 100 µM | SN12C > 100 µM | TK-10 > 100 µM | PC-3 > 100 µM | MDA-N 88.5 µM | CAKI-1 > 100 µM

CC(=O)OC12c3ccccc3-c3ccccc3C1C(C(=O)O)C2(Cl)C(=O)O (stereo unspecified)
inactive: HT-29 > 10 µM | NCI-H226 > 10 µM | OVCAR-8 > 10 µM | HOP-92 > 10 µM | Malme-3M > 10 µM | RXF 393 > 10 µM | M14 > 10 µM | NCI-H522 > 10 µM | LOX IMVI > 10 µM | OVCAR-4 > 10 µM | SK-OV-3 > 10 µM | SN12C > 10 µM | TK-10 > 10 µM | PC-3 > 10 µM | MDA-N > 10 µM | CAKI-1 > 10 µM

COc1cc(/C=C/C(=O)OCCc2ccccc2)ccc1O
inactive: HT-29 21.3 µM | OVCAR-8 28.5 µM | Malme-3M 16.4 µM | BT-549 14.7 µM | M14 15 µM | A549 18.4 µM | NCI-H522 5.4 µM | LOX IMVI 14.5 µM | OVCAR-4 13 µM | SK-OV-3 16.1 µM | SN12C 19.8 µM | TK-10 15.1 µM | PC-3 14.2 µM | MDA-N 19.1 µM | CAKI-1 15.9 µM
